Measured values as given in patent US9265248B2, “Water soluble antimicrobial composition” (Medivators Inc., priority 2011, dated 2016).

Test system: bacteria
Assay: Residual test on coated carriers, 10 minute contact time (organism not named)
Type: cell-based
Conditions: average over all inocula of the sample
From the text: Solutions of examples 12-01 to 12-05 were used to coat polycarbonate or glass carriers. Once dried, bacteria were inoculated on top of the coating and a log reduction of bacteria was obtained after a certain contact time. CFU=Colony Forming Units, TNTC=Too numerous to count, BCP=benzalkonium chloride powder, ThP=thymol powder

alkyldimethylbenzylammonium chloride [0.3 wt % benzalkonium chloride control]
Average Log 10 Reduction: 0.5
